Measured values: US4822787A, “3-pyrrolidinylthio-1-azabicyclo(3.2.0)-hept-2-ene-2-carboxylic acid compounds and antimicrobial activity thereof” (Fujisawa Pharmaceutical Co., Ltd., priority 1986, dated 1989)
Converted amounts (≈) assume the structure as drawn.

Legend:
Format in all cases: cell-based
S. aureus 2496 = test: in vitro Antimicrobial Activity, two-fold agar-plate dilution method (MIC), S. aureus 2496; conditions: Staphylococcus aureus, Mueller Hinton agar, 37° C., 20 hours, read-out: minimal inhibitory concentration (MIC)
Procedure: (§1) in vitro Antimicrobial Activity was determined by the two-fold agar-plate dilution method as described below. One loopful of 100-fold dilution of an overnight culture of a test strain in Mueller Hinton broth (Difco) (approximately 10^6 viable cells per ml) was spot-inoculated on Mueller Hinto agar^(*) (Difco) containing graded concentrations of the test compound, and the minimal inhibitory concentration (MIC) was expressed in terms of μg/ml after incubation at 37° C. for 20 hours.

P. aeruginosa 3036 = test: in vitro Antimicrobial Activity, two-fold agar-plate dilution method (MIC), P. aeruginosa 3036; conditions: Pseudomonas aeruginosa, Mueller Hinton agar, 37° C., 20 hours, read-out: minimal inhibitory concentration (MIC)
Procedure: as §1

E. cloacae 3013 = test: in vitro Antimicrobial Activity, two-fold agar-plate dilution method (MIC), E. cloacae 3013; conditions: Enterobacter cloacae, Mueller Hinton agar, 37° C., 20 hours, read-out: minimal inhibitory concentration (MIC)
Procedure: as §1

H. influenzae 58 = test: in vitro Antimicrobial Activity, two-fold agar-plate dilution method (MIC), H. influenzae 58; conditions: Haemophilus influenzae, added 5% horse blood-chocolate agar, 37° C., 20 hours, read-out: minimal inhibitory concentration (MIC)
Procedure: as §1, with “hours. [(*)added 5% horse blood-chocolate agar for the test of H. influenzae]” for “hours.”

## C[C@@H](O)[C@H]1C(=O)N2C(C(=O)O)=C(S[C@@H]3CN[C@H](COCCNC(N)=O)C3)[C@H](C)[C@H]12 [Compound of this invention, (4R,5S,6S)-6-[(1R)-1-hydroxyethyl]-4-methyl-7-oxo-3-[(2S,4S)-2-{(2-ureidoethyl)oxymethyl}pyrrolidin-4-yl]thio-1-azabicyclo[3.2.0]hept-2-ene-2-carboxylic acid]
S. aureus 2496
  MIC: 0.05 µg/mL (≈ 0.117 µM)
P. aeruginosa 3036
  MIC: 0.39 µg/mL (≈ 0.91 µM)
E. cloacae 3013
  MIC: ≤ 0.025 µg/mL
H. influenzae 58
  MIC: 0.1 µg/mL (≈ 0.233 µM)

## C[C@@H](O)[C@H]1C(=O)N2C(C(=O)O)=C(S[C@@H]3CN[C@H](CNC(N)=O)C3)[C@H](C)[C@H]12 [Reference Compound, (4R,5S,6S)-6-[(1R)-1-hydroxyethyl]-4-methyl-7-oxo-3-[(2S,4S)-2-ureidomethylpyrrolidin-4-yl]thio-1-azabicyclo[3.2.0]hept-2-ene-2-carboxylic acid]
S. aureus 2496
  MIC: 1.56 µg/mL (≈ 4.06 µM)
P. aeruginosa 3036
  MIC: 1.56 µg/mL (≈ 4.06 µM)
E. cloacae 3013
  MIC: 0.1 µg/mL (≈ 0.26 µM)
H. influenzae 58
  MIC: 0.78 µg/mL (≈ 2.03 µM)
